In patent publication US4490388A, “Amidine compound and anticomplement agent comprising same” (Torii & Co., Ltd., priority 1981, dated 1984):

What was measured:
[1] = biological target: T1, C1r (Homo sapiens, UniProt P00736); test: Anti-C1 esterase activity, C1r (hydrolysis of AAME); assay type: biochemical; settings: molar concentration inhibiting 50% of AAME hydrolysis; read-out: Anti-C1 activity, C1r id50
T1 sequence (P00736 464-705 limits assumed): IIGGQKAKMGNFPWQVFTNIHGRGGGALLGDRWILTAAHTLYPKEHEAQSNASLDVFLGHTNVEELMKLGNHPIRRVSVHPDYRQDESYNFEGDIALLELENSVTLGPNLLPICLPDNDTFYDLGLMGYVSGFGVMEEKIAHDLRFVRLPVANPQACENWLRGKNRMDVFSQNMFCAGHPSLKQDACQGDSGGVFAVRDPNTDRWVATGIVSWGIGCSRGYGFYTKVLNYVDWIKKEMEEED
T1 sequence (P00736 18-463 partner limits assumed): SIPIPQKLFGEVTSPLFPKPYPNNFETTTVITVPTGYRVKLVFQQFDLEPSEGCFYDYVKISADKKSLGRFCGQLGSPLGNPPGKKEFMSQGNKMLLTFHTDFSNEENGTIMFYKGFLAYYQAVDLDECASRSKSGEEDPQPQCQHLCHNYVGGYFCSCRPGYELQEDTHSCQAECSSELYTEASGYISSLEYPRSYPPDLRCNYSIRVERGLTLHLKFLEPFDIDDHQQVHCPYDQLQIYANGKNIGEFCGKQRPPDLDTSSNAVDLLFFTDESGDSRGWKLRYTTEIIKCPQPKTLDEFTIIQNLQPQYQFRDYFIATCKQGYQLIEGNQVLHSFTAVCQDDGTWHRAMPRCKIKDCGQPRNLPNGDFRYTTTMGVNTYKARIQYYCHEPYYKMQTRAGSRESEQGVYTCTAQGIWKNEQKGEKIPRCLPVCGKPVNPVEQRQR
Procedure: The anti-C1 esterase (C1r, C1s) activity was determined according to the method of Okamura et al. [K. Okamura, M. Muramatsu and B. Fujii, Biochem. Biophys. […] The figures in Table 2 have the following meanings:
C1r: Molar concentration of the test compound which inhibits 50% of the ability of C1r to hydrolyse AAME (acetylarginin methyl ester) (id50).

[2] = test system: complement; test: Inhibition of complement mediated hemolysis; assay type: cell-based; settings: read-out: Inhibition of complement mediated hemolysis (%)
[3] = biological target: T2, C1s (Homo sapiens, UniProt P09871); test: Anti-C1 esterase activity, C1s (hydrolysis of ATEE); assay type: biochemical
T2 sequence (P09871 438-688 limits assumed): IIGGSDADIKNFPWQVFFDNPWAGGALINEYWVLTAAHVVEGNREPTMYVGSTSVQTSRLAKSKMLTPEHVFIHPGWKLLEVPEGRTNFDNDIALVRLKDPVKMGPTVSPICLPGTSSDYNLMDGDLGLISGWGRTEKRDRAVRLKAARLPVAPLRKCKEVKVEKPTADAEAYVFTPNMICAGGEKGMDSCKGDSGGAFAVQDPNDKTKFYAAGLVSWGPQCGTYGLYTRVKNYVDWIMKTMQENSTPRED
T2 sequence (P09871 16-437 partner limits assumed): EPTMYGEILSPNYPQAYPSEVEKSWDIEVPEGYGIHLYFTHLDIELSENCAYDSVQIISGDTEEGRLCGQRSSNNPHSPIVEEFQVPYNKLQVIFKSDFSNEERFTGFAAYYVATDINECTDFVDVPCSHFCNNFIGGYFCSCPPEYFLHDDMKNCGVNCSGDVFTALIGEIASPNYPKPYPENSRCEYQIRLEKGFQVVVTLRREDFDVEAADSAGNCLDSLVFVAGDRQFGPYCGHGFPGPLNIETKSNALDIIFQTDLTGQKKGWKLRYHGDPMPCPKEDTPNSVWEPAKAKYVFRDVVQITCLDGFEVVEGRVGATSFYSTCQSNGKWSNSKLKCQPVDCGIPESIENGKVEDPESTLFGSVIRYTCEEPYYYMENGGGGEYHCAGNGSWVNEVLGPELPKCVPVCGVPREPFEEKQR
Procedure: The anti-C1 esterase (C1r, C1s) activity was determined according to the method of Okamura et al. [K. Okamura, M. Muramatsu and B. Fujii, Biochem. Biophys. Acta, 295, 252-257 (1973)]. The inhibition of complement mediated hemolysis was determined according to the method of Baker et al. [B. R. Baker and E. H. Erickson, J. Med. Chem., 12, 408-414 (1969)]. The figures in Table 2 have the following meanings:
C1s: Molar concentration of the test compound which inhibits 50% of the ability of C1s to hydrolyse ATEE (acetyltyrosin ethyl ester).

[4] = test system: complement; settings: Y. Takada et al., Immunology 34, 509-515 (1978); cited from earlier work

## CC(=O)N[C@@H](CC(C)C)C(=O)N[C@@H](CC(C)C)C(=O)N[C@H](C=O)CCCNC(=N)N [Leupeptin, reference compound]
[1]
  IC50: 200 µM
[2]
  inhibition at 0.1 µM: 0%
  inhibition at 1 µM: 0%
  inhibition at 10 µM: 52%
  inhibition at 100 µM: 97%
[3]
  IC50: 20 µM
[4]
  anti-complement activity (in words): anti-complement activity
